The record followed here is PubChem BioAssay AID330 (DTP/NCI, 2004).

Molecules are shown by their SMILES. “And” between values parts separate entries of the source, which are not always exact repeats. Identical values can stand only once. Inconclusive results and toxic doses are left out.

The experiment relates to P388 leukemia ip, CD2F1 mice, survival T/C. The experiment is described as follows: NCI In Vivo Anticancer Drug Screen. Data for tumor model P388 Leukemia (intraperitoneal) in CD2F1 (CDF1) mice. The conditions noted are these: endpoint: median survival time, higher = longer survival. In a few lines:
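Mice carrying the transplanted tumor received test compound or vehicle. Survival was recorded in each group, and the value is the treated-group measurement divided by that of the vehicle-treated control group.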

Setting [1] is: dose: 50.0 mg/kg/injection, schedule: Q01DX009 (ip), vehicle: saline.
The mark [2] stands for this setting: dose: 100.0 mg/kg/injection, schedule: Q01DX009 (ip), vehicle: saline.
The mark [3] stands for this setting: dose: 200.0 mg/kg/injection, schedule: Q01DX009 (ip), vehicle: saline.
[4] abbreviates: dose: 400.0 mg/kg/injection, schedule: Q01DX009 (ip), vehicle: saline.
The mark [5] stands for this setting: dose: 50.0 mg/kg/injection, schedule: Q01DX005 (ip), vehicle: Klucel (hydroxypropylcellulose) (HPC).
Setting [6] is: dose: 100.0 mg/kg/injection, schedule: Q01DX005 (ip), vehicle: Klucel (hydroxypropylcellulose) (HPC).
Where [7] appears, read: dose: 200.0 mg/kg/injection, schedule: Q01DX005 (ip), vehicle: Klucel (hydroxypropylcellulose) (HPC).
Setting [8] is: dose: 60.0 mg/kg/injection, schedule: Q01DX005 (ip), vehicle: saline with Tween-80.
The mark [9] stands for this setting: dose: 120.0 mg/kg/injection, schedule: Q01DX005 (ip), vehicle: saline with Tween-80.
The mark [10] stands for this setting: dose: 240.0 mg/kg/injection, schedule: Q01DX005 (ip), vehicle: saline with Tween-80.
[11] abbreviates: dose: 50.0 mg/kg/injection, schedule: Q01DX009 (ip), vehicle: saline with Tween-80.
Where [12] appears, read: dose: 50.0 mg/kg/injection, schedule: Q01DX005 (ip), vehicle: saline with Tween-80.
The mark [13] stands for this setting: dose: 100.0 mg/kg/injection, schedule: Q01DX005 (ip), vehicle: saline with Tween-80.
Setting [14] is: dose: 200.0 mg/kg/injection, schedule: Q01DX009 (ip), vehicle: saline with Tween-80.
The mark [15] stands for this setting: dose: 12.5 mg/kg/injection, schedule: Q01DX009 (ip), vehicle: saline.
The mark [16] stands for this setting: dose: 25.0 mg/kg/injection, schedule: Q01DX009 (ip), vehicle: saline.
Where [17] appears, read: dose: 50.0 mg/kg/injection, schedule: Q01DX009 (ip), vehicle: Klucel (hydroxypropylcellulose) (HPC).
Where [18] appears, read: dose: 100.0 mg/kg/injection, schedule: Q01DX009 (ip), vehicle: Klucel (hydroxypropylcellulose) (HPC).

Regarding `CCNC(=O)Oc1ccc[nH]c1=O`, the T/C by setting is: (dose: 25.0 mg/kg/injection, schedule: Q01DX009 (sc), vehicle: water) 100 % of control and 103 % of control; under setting [1], 111 % of control and 114 % of control; (dose: 50.0 mg/kg/injection, schedule: Q01DX009 (sc), vehicle: water) 104 % of control and 109 % of control; under setting [2], 122 % of control; (dose: 100.0 mg/kg/injection, schedule: Q01DX009 (sc), vehicle: water) 106 % of control and 109 % of control; under setting [3], 118 % of control. The T/C is 108 % of control and 118 % of control (dose: 200.0 mg/kg/injection, schedule: Q01DX009 (sc), vehicle: water); 119 % of control under setting [4]; 113 % of control (dose: 400.0 mg/kg/injection, schedule: Q01DX009 (sc), vehicle: water).
For the compound `Cc1cc(=O)c(C(=O)NC=O)c(C)o1`, the T/C under setting [5] is 99 % of control, the T/C under setting [6] is 101 % of control and the T/C under setting [7] is 117 % of control.
In the case of `COC(=O)/C=C1\SC(OC)(N(C)c2ccccc2)N(C)C1=O` (stereo not drawn), the T/C reads like this: under setting [8], 90 % of control; under setting [9], 98 % of control; under setting [10], 91 % of control.
Take `CCc1cccc(C)c1NC(=O)C(=O)CC(=O)c1ccc(Cl)cc1Cl`: the T/C under setting [8] was 114 % of control, the T/C under setting [9] was 116 % of control and the T/C under setting [10] is 113 % of control.
`CC(=O)OC1CC2CCCCC2CC1[N+](C)(C)C` (stereo not drawn): the T/C is 108 % of control (dose: 12.5 mg/kg/injection, schedule: Q01DX009 (ip), vehicle: saline with Tween-80); 112 % of control (dose: 25.0 mg/kg/injection, schedule: Q01DX009 (ip), vehicle: saline with Tween-80); 103 % of control and 94 % of control under setting [11]; 105 % of control under setting [1].
Take `COc1ccc(C2NCc3c(sc4c3CCCC4)-n3cccc32)cc1` (stereo not drawn): the T/C runs as follows: under setting [12], 87 % of control; under setting [13], 87 % of control; (dose: 200.0 mg/kg/injection, schedule: Q01DX005 (ip), vehicle: saline with Tween-80) 87 % of control.
With `O=C1OC(C(O)CO)C(O)=C1OC[N+]1(CCCl)CCN(CCCl)CC1` (stereo not drawn), the T/C is 100 % of control and 110 % of control under setting [1]; 108 % of control and 116 % of control under setting [2]; 123 % of control under setting [3]; 157 % of control under setting [4].
For `Cc1ccc(NC(=O)Oc2c(C)cc(Cl)cc2C)c([N+](=O)[O-])c1`, the T/C runs as follows: under setting [11], 95 % of control; under setting [14], 95 % of control.
On to `Cc1nc([N+](=O)[O-])c(Sc2nncc(-c3ccccc3)n2)n1C`, for which the T/C reads like this: under setting [5], 111 % of control; under setting [6], 104 % of control.
For `CSC1=Nc2cccnc2Nc2cscc21`, the T/C was 102 % of control (dose: 15.0 mg/kg/injection, schedule: Q01DX005 (ip), vehicle: saline with Tween-80); 98 % of control (dose: 30.0 mg/kg/injection, schedule: Q01DX005 (ip), vehicle: saline with Tween-80); 112 % of control and 94 % of control under setting [8].
As to `COc1cc(C)c2sc3ccccc3c(=O)c2c1NCCN(C)C`, the T/C was 100 % of control and 104 % of control and 108 % of control under setting [15]; 99 % of control and 108 % of control and 110 % of control under setting [16]; 96 % of control under setting [11]; 111 % of control and 112 % of control under setting [2].
Turning to `COC(=O)/C=C\C=[N+](/[O-])C(C)(C)C`, the T/C by setting is: (dose: 12.5 mg/kg/injection, schedule: Q01DX001 (ip), vehicle: Klucel (hydroxypropylcellulose) (HPC)) 114 % of control; (dose: 25.0 mg/kg/injection, schedule: Q01DX001 (ip), vehicle: Klucel (hydroxypropylcellulose) (HPC)) 113 % of control; (dose: 50.0 mg/kg/injection, schedule: Q01DX001 (ip), vehicle: Klucel (hydroxypropylcellulose) (HPC)) 113 % of control.
Turning to `O=C(O)CC(CC(=O)c1ccccc1)c1ccccc1` (stereo not drawn), the T/C reads like this: (dose: 12.5 mg/kg/injection, schedule: Q01DX009 (ip), vehicle: Klucel (hydroxypropylcellulose) (HPC)) 104 % of control; (dose: 25.0 mg/kg/injection, schedule: Q01DX009 (ip), vehicle: Klucel (hydroxypropylcellulose) (HPC)) 101 % of control; under setting [17], 103 % of control and 108 % of control; under setting [18], 101 % of control and 102 % of control and 107 % of control; (dose: 200.0 mg/kg/injection, schedule: Q01DX009 (ip), vehicle: Klucel (hydroxypropylcellulose) (HPC)) 104 % of control and 94 % of control; (dose: 400.0 mg/kg/injection, schedule: Q01DX009 (ip), vehicle: Klucel (hydroxypropylcellulose) (HPC)) 104 % of control and 93 % of control.
Take `O=C(Nc1ccc(Nc2ccc3c(c2)C(=O)c2ccccc2C3=O)c2c1C(=O)c1ccccc1C2=O)c1ccccc1`: the T/C is, setting by setting: under setting [5], 92 % of control; under setting [6], 91 % of control; under setting [7], 88 % of control.
With `Cn1c(=O)c(C#N)c2n(C)c3ccccc3n2c1=O`, the T/C is, setting by setting: under setting [8], 93 % of control; under setting [9], 89 % of control; under setting [10], 89 % of control.
Turning to `Nc1nc(N)nc(NC(=O)COc2cc(Cl)c(Cl)cc2Cl)n1`, the T/C by setting is: (dose: 100.0 mg/kg/injection, schedule: Q01DX009 (ip), vehicle: saline with Tween-80) 95 % of control; under setting [14], 90 % of control; (dose: 400.0 mg/kg/injection, schedule: Q01DX009 (ip), vehicle: saline with Tween-80) 100 % of control.
For the compound `CCOc1ccc2cc(S(=O)(=O)O)ccc2c1N`, the T/C (dose: 100.0 mg/kg/injection, schedule: Q04DX003 (ip), vehicle: saline with Tween-80) is 100 % of control; the T/C (dose: 200.0 mg/kg/injection, schedule: Q04DX003 (ip), vehicle: saline with Tween-80) is 90 % of control; the T/C (dose: 400.0 mg/kg/injection, schedule: Q04DX003 (ip), vehicle: saline with Tween-80) was 100 % of control.
For the compound `CN1C2=CCCCC2(C)c2ccccc21` (stereo not drawn), the T/C is, setting by setting: (dose: 60.0 mg/kg/injection, schedule: Q01DX005 (ip), vehicle: saline) 105 % of control; (dose: 120.0 mg/kg/injection, schedule: Q01DX005 (ip), vehicle: saline) 115 % of control; (dose: 240.0 mg/kg/injection, schedule: Q01DX005 (ip), vehicle: saline) 118 % of control.
Take `CC(C)CC(NC(=O)OCc1ccccc1)C(=O)O` (stereo not drawn): the T/C runs as follows: under setting [12], 105 % of control; under setting [13], 101 % of control.
In the case of `COC(=O)N1C(c2ccccc2)C=CC(c2ccccc2)N1C(=O)OC` (stereo not drawn), the T/C (dose: 60.0 mg/kg/injection, schedule: Q01DX005 (ip), vehicle: Klucel (hydroxypropylcellulose) (HPC)) was 103 % of control; the T/C (dose: 120.0 mg/kg/injection, schedule: Q01DX005 (ip), vehicle: Klucel (hydroxypropylcellulose) (HPC)) was 96 % of control; the T/C (dose: 240.0 mg/kg/injection, schedule: Q01DX005 (ip), vehicle: Klucel (hydroxypropylcellulose) (HPC)) was 96 % of control.
Consider `O=C(C1=C(NCc2ccccc2)CCCC1)c1ccccc1`, for which the T/C is 97 % of control under setting [15]; 100 % of control under setting [16]; 104 % of control and 109 % of control under setting [1].
For the compound `CCOc1ccc(C(c2ccc(OCC)cc2)C(C)C)cc1`, the T/C was 108 % of control (dose: 50.0 mg/kg/injection, schedule: Q01DX009 (ip), vehicle: suspension in saline); 100 % of control (dose: 100.0 mg/kg/injection, schedule: Q01DX009 (ip), vehicle: suspension in saline); 105 % of control (dose: 200.0 mg/kg/injection, schedule: Q01DX009 (ip), vehicle: suspension in saline).
In the case of `NC(N)=NS(=O)(=O)c1ccc(N=Nc2c(O)n(-c3ccccc3)n(-c3ccccc3)c2=O)cc1`, the T/C is, setting by setting: under setting [17], 88 % of control; under setting [18], 94 % of control.
With `Cc1cccc(/C=N/Nc2cc(C)c3ccccc3n2)n1`, the T/C was 100 % of control (dose: 12.5 mg/kg/injection, schedule: Q01DX005 (ip), vehicle: saline with Tween-80); 93 % of control (dose: 25.0 mg/kg/injection, schedule: Q01DX005 (ip), vehicle: saline with Tween-80); 101 % of control and 104 % of control under setting [12].
For the compound `CNP1(NC)=N[P@@](NC)(N2CC2)=NP(NC)(N2CC2)=N1` (stereo partly drawn), the T/C is, setting by setting: (dose: 1.87 mg/kg/injection, schedule: Q01DX005 (ip), vehicle: saline) 102 % of control; (dose: 7.5 mg/kg/injection, schedule: Q01DX005 (ip), vehicle: saline) 158 % of control and 185 % of control; (dose: 15.0 mg/kg/injection, schedule: Q01DX005 (ip), vehicle: saline) 171 % of control and 227 % of control.
